{"source": "patent US10233483B2", "about": "“Methods of targeted antibiotic susceptibility testing” (Qvella Corporation, priority 2013, dated 2019)", "key": {"[1]": {"tested_on": "E. coli", "experiment": "DnaK mRNA level after heat-shock induction in bacteria exposed to antibiotic, real-time RT-PCR", "assay_type": "cell-based, Escherichia coli", "conditions": "4 or 8 ug/mL, 120 min at 37° C. in LB broth, heat-shock 42° C. 3 min before E-lysis", "description": "Unless any variation was specified, RT-PCR reaction of 5 μL volume was prepared by mixing 1 μL of sample, 1 μL of Kapa 2G Robust Hotstart 5× buffer (KK5517, KAPA Biosystems), 0.05 μL of Kapa 2G Robust Hotstart DNA polymerase (kk5517, KAPA Biosystems), 0.2 μL of reverse transcriptase (GoScript, A5004 Promega), 0.04 uL of 100 mM dNTPs (10297-117, Life Technologies), 0.25 uL of DMSO, 0.13 uL of SYBR Green (1/375 dilution, S7563 Invitrogen), 0.5 μL each of respective forward and reverse primers (2.5 μM) and 1.34 μL of RNAase free water. In indicated experiments, for PCR reaction of 5 μL volume the composition was the same as RT-PCR reaction except 0.2 μL of RNAase free water was added instead of reverse transcriptase. Real time RT-PCR targeting rRNA or tmRNA was performed by reverse transcription at 50° C. for 5 min, inactivation of reverse transcriptase and activation of hotstart DNA polymerase at 97° C. for 5 min, followed by 35 to 40 cycles of cDNA amplification (denaturation at 95° C. for 5 sec, annealing at 63° for 7 sec, and extension at 72° C. for 10 sec) in Eco Real Time PCR system (Illumina) using a double stranded DNA binding fluorescent dye, SYBR Green. […]\nAs it is observed, the exposure of microbial cells to the antibiotic norfloxacin reduced the quantity of target mRNA by approximately 8-16 times (corresponding to 3-4 PCR cycles)."}, "[2]": {"tested_on": "Klebsiella pneumoniae", "experiment": "Antimicrobial sensitivity testing of bacteria in partially lysed then enriched whole blood, real-time RT-PCR of rRNA and tmRNA", "assay_type": "cell-based", "conditions": "8 ug/mL final concentration, 2 hours incubation at 37° C. after 2 hours pre-incubation, K. pneumoniae spiked whole blood enriched with TSB", "description": "Unless any variation is specified, the following example pretreatment procedure which includes blood cell lysis step followed by 4 wash cycles was performed in experiments which required pretreatment of blood samples. 10 μL of Fluorinert™ was added to 2 mL siliconized microcentrifuge tubes (T3531, Sigma), followed by the addition of 500 μL of the blood cell lysis reagent. The blood cell lysis reagent consisted of 75 mg/mL saponin, 15 mg/mL SPS and 1% PPG. EDTA-treated human whole blood from healthy volunteers of 1 mL spiked with microbial cells was added to the tube containing the blood cell lysis reagent and the Fluorinert™, and mixed by inverting ten times and vortexing at low speeds for 10 sec. The final concentrations of the components in the mixture were 25 mg/mL saponin, 5 mg/mL SPS and 0.33% PPG. The tubes were centrifuged at 12,000 rpm for 1 min and 1.35 mL of the supernatant was removed, leaving 150 uL of the liquid supernatant, Fluorinert™ and the sedimented microbial I cells. The first wash cycles was performed by adding 1.35 mL of 0.8 mM phosphate buffer to the remaining liquid supernatant of 150 uL as described above, mixing by vortexing at low speed for 10 sec, centrifugation at 12,000 rpm for 1 min and removal of 1.35 mL of the supernatant, leaving 150 μL of the liquid supernatant, the Fluorinert™ and the sedimented microbial. […]"}}, "data": [{"smiles": "CCn1cc(C(=O)O)c(=O)c2cc(F)c(N3CCNCC3)cc21", "note": "[norfloxacin]", "values": [{"measurement": "reduction of target mRNA (DnaK) signal in PCR cycles after exposure to the antibiotic", "setting": "[1]", "value": "3-4 PCR cycles"}, {"measurement": "reduction of the quantity of target mRNA (DnaK) after exposure to the antibiotic", "setting": "[1]", "value": "8-16 times"}, {"measurement": "rRNA and tmRNA RT-PCR signal in response to the antibiotic compared to without antibiotic (Non-treated) culture", "setting": "[2]", "value": "reduction of rRNA and tmRNA"}]}]}
